Laboratory results from patent US20060264455A1 (priority 2005, published 2006).
“And” between values parts separate entries of the source, which are not always exact repeats. Identical values can stand only once. Like-named read-outs stand apart in the source and are kept apart here.

How the values were obtained:
[1] = tested on: 6 Hz limbic seizures (corneal stimulation); conditions: for N/F, Time to Peak Effect: IP, 32 mA series; for COMMENT (observed effect): ip
Description: (§1) These three tests are highly predictive of efficacy against human generalized tonic-clonic (MES), generalized myoclonic (sc PTZ), and refractory limbic (6 Hz) seizures, respectively.
(§2) Male, 18-25 g CFI mice and 100-125 g Sprague-Dawley rats (Charles River Laboratories, Wilmington, Mass.) were used as the experimental animals. Animals were pretreated intraperitoneally (i.p.) with increasing doses of HupA and tested at various times after administration for protection against tonic extension (MES test), minimal clonic (s.c. PTZ test), limbic (6 Hz), or secondarily generalized (kindled rat) seizures. Seizure testing was carried out as follows. For the MES and 6 Hz tests, a drop of anesthetic/electrolyte solution (0.5% tetracaine hydrochloride in 0.9% saline) was applied to the eyes of each animal prior to placement of the corneal electrodes.

[2] = tested on: maximal electroshock (MES) tonic extension seizures; assay: Maximal Electroshock (MES) model, mice; conditions: for Mice protected against seizures, MES: 3 mg/kg; for N/F, MES time course: mice, I.P., 5 mg/kg
Description: (§3) The maximal electroshock (MES) model is an art recognized test, useful to investigate the efficacy of therapeutic agents against grand mal seizures. Maximal seizures were induced by the application of electrical current to the brain via corneal electrodes. The stimulus parameters for mice were 50 mA in a pulse of 60 Hz for 200 ms.
(§4) Male, 18-25 g CFI mice and 100-125 g Sprague-Dawley rats (Charles River Laboratories, Wilmington, Mass.) were used as the experimental animals. Animals were pretreated intraperitoneally (i.p.) with increasing doses of HupA and tested at various times after administration for protection against tonic extension (MES test), minimal clonic (s.c. PTZ test), limbic (6 Hz), or secondarily generalized (kindled rat) seizures. Seizure testing was carried out as follows. For the MES and 6 Hz tests, a drop of anesthetic/electrolyte solution (0.5% tetracaine hydrochloride in 0.9% saline) was applied to the eyes of each animal prior to placement of the corneal electrodes. […] Animals not displaying secondarily generalize seizures were considered protected.

[3] = tested on: hippocampal kindled seizures; assay: Rapid hippocampal kindling model, rat; assay type: in vivo; conditions: 1 mg/kg, i.p., time of test ¼-3 h
Procedure: Seizure testing was carried out as follows.

patients = conditions: human, in vivo; cited from earlier work
[4] = tested on: maximal electroshock (MES) tonic extension seizures; assay: Maximal Electroshock (MES) model, rats; conditions: oral, 1 mg/kg
Description: as §3, §4

[5] = tested on: subcutaneous Metrazol (pentylenetetrazol) seizures; assay: Subcutaneous Metrazol (SCMET / scPTZ) model, rats
Description: The Subcutaneous Metrazole (SCMET) model is also an art-recognized test for therapeutic agents for epilepsy, and in particular, is useful for investigating petite mal seizures.

[6] = tested on: 6 Hz limbic seizures (corneal stimulation); assay: animal or person; conditions: Mus musculus, ip
Description: as §1, §2

[7] = tested on: minimal motor impairment (ataxia, abnormal gait and stance); assay: Toxicity (TOX) / minimal motor impairment, rats; conditions: oral, 1 mg/kg
[8] = tested on: formalin-induced paw-licking; assay: Formalin test (paw licking/biting) in mice; assay type: in vivo; conditions: for Duration of Licking: Trial 1, one value per animal #01-08; for activity at 0.5 mg/kg / activity at 1 mg/kg: Mus musculus, ip, read-out: Area Under the Curve, % of Control
Procedure: The formalin test for antinociceptive activity is described in numerous publications, e.g., Hunskaar, S., O. B. Fasmer, and K. Hole, J. Neurosci. […] The formalin test is accepted as an art recognized model of persistent clinical pain.
Male Swiss Webster NIH mice (20-30 g; Harlan, San Diego, Calif.) were used in the experiments described herein. Food was withdrawn on the day of experiment. Mice were placed in Plexiglass jars for at least 1 hour to accommodate to the environment. Following the accommodation period, mice were weighed and given either a huperzine compound administered intraperitoneal (i.p.) or oral (p.o.), or the appropriate volume of vehicle (10% Tween-80). Fifteen minutes after the i.p. dosing, and 30 minutes after the p.o. dosing mice were injected with formalin (20 μL of 5% formaldehyde solution in saline) into the dorsal surface of the right hind paw. Mice were transferred to the Plexiglass jars and monitored for the amount of time spent licking or biting the injected paw. Periods of licking and biting were recorded in 5 minute intervals for 40 minutes after the formalin injection. All experiments were done in a blinded manner. The early phase (acute) of the formalin response is measured as licking/biting between 0-5 minutes, and the late phase (inflammatory) is measured from 10-40 minutes. Differences between vehicle and drug treated groups are analyzed by one-way analysis of variance (ANOVA). A P value<0.05 is considered significant.
Fifteen minutes after the i.p. dosing, mice were injected with formalin (20 μL of 5% formaldehyde solution in saline) into the dorsal surface of the right hind paw. Periods of licking and biting were recorded in 5 minute intervals for 40 minutes after the formalin injection as shown below in Tables 1 and 2. All experiments were done according to the art-recognized Anticonvulsant Screening Program of the NINDS at the University of Utah.
Duration of paw licking in the tables below is expressed in seconds.

[9] = tested on: subcutaneous Metrazol (pentylenetetrazol) seizures; conditions: i.p.
Procedure: Male, 18-25 g CFI mice and 100-125 g Sprague-Dawley rats (Charles River Laboratories, Wilmington, Mass.) were used as the experimental animals. Animals were pretreated intraperitoneally (i.p.) with increasing doses of HupA and tested at various times after administration for protection against tonic extension (MES test), minimal clonic (s.c. PTZ test), limbic (6 Hz), or secondarily generalized (kindled rat) seizures. Seizure testing was carried out as follows. For the MES and 6 Hz tests, a drop of anesthetic/electrolyte solution (0.5% tetracaine hydrochloride in 0.9% saline) was applied to the eyes of each animal prior to placement of the corneal electrodes. […] The ability of the test substance to prevent seizures induced by 6 Hz corneal stimulation (32 mA, 3 sec duration) was assessed at various times after i.p. administration of 1 mg/kg HupA For assessment of hippocampal kindling, HupA (1 mg/kg, i.p.) was administered.

[10] = tested on: minimal motor impairment (ataxia, abnormal gait and stance); conditions: rat, in vivo
[11] = 0.5 mg/kg i.p., Inflammatory phase
[12] = 1 mg/kg i.p., Inflammatory phase

## C/C=C1\[C@H]2C=C(C)C[C@]1(N)c1ccc(=O)[nH]c1C2 [Huperzine A]
[1]; 0.8 mg/kg
  Protection in the mouse 6 Hz test (FIG. 1): time-dependent protection
[1]; 6 Hz, Mouse, 0.83 mg/kg, i.p., time of test 1 h
  Maximum Protection Observed: 100%
[1]; 0.83 mg/kg, 0.25 h
  N/F, Time to Peak Effect: 1/4
[1]; 0.83 mg/kg, 0.5 h
  N/F, Time to Peak Effect: 1/4
[1]; 0.83 mg/kg, 1.0 h
  N/F, Time to Peak Effect: 4/4
[1]; 0.83 mg/kg, 2.0 h
  N/F, Time to Peak Effect: 2/4
[1]; 0.83 mg/kg, 4.0 h
  N/F, Time to Peak Effect: 0/4
[1]; mouse, in vivo
  Protection against 6 Hz seizures (FIG. 2): dose-dependent protection
[1]; mouse, in vivo, 0.18 mg/kg
  COMMENT (observed effect): Minimal motor impairment
[1]; mouse, in vivo, 0.2 mg/kg
  COMMENT (observed effect): Tremors
[1]; mouse, in vivo, 0.35 mg/kg
  COMMENT (observed effect): Minimal motor impairment
[2]; 1 mg/kg
  Protection in the mouse MES test (FIG. 1): time-dependent protection
[2]; 30 minutes post administration
  Mice protected against seizures, MES: 33%
[2]; four hours post administration
  Mice protected against seizures, MES: 100%
[2]; MES, Mouse, 1 mg/kg, i.p., time of test 1 & 2 h
  Maximum Protection Observed: 75%
[2]; i.p., 0.1 mg/kg SOL, 4.0 h
  N/F (mice showing an effect / mice tested), MES: 0/4
[2]; i.p., 0.3 mg/kg SOL, 4.0 h
  N/F (mice showing an effect / mice tested), MES: 0/4
[2]; i.p., 1 mg/kg SUS, 0.5 h
  N/F (mice showing an effect / mice tested), MES: 0/1
[2]; i.p., 1 mg/kg SUS, 4.0 h
  N/F (mice showing an effect / mice tested), MES: 1/1
[2]; i.p., 3 mg/kg SUS, 0.5 h
  N/F (mice showing an effect / mice tested), MES: 1/3
[2]; i.p., 3 mg/kg SUS, 4.0 h
  N/F (mice showing an effect / mice tested), MES: 3/3
[2]; i.p., 10 mg/kg SUS, 0.5 h
  N/F (mice showing an effect / mice tested), MES: 1/1
[2]; i.p., 10 mg/kg SUS, 4.0 h
  N/F (mice showing an effect / mice tested), MES: 1/1
[2]; 0.5 h
  N/F, MES time course: 1/4
[2]; 1.0 h
  N/F, MES time course: 3/4
[2]; 2.0 h
  N/F, MES time course: 3/4
[2]; 4.0 h
  N/F, MES time course: 3/4
[2]; 6.0 h
  N/F, MES time course: 4/4
[3]
  Maximum Protection Observed: 0%
patients
  Adverse effects in patients: noted infrequently and were mainly cholinergic
[4]; 0.25 h
  N/F, MES time course: 0/4
[4]; 0.5 h
  N/F, MES time course: 0/4
[4]; 1.0 h
  N/F, MES time course: 1/4
[4]; 2.0 h
  N/F, MES time course: 1/4
[4]; 4.0 h
  N/F, MES time course: 0/4
[4]; 6.0 h
  N/F, MES time course: 0/4
[5]; after p.o. administration of 1 mg/kg, test not given
  Time of peak anticonvulsant activity: one-hour
[5]; p.o., doses tested 1, 2 and 4 mg/kg, at a non-toxic dose of 1 mg/kg, test not given
  Maximum protection: 62.5%
[5]; rats, oral, 1 mg/kg, 0.25 h
  N/F, SCMET time course: 0/4
[5]; rats, oral, 1 mg/kg, 0.5 h
  N/F, SCMET time course: 2/4
[5]; rats, oral, 1 mg/kg, 1.0 h
  N/F, SCMET time course: 2/4
[5]; rats, oral, 1 mg/kg, 2.0 h
  N/F, SCMET time course: 1/4
[5]; rats, oral, 1 mg/kg, 4.0 h
  N/F, SCMET time course: 1/4
[5]; rats, oral, 1 mg/kg, 6.0 h
  N/F, SCMET time course: 0/4
[5]; rats, oral, 1 mg/kg, MES and SCMET models
  Time of peak activity post administration: between 30 minutes and two hours
[5]; scPTZ, Rat, 2 mg/kg, p.o., time of test ½ h
  Maximum Protection Observed: 62.5%
[6]; 1 h, 22 mA
  ED50: 0.279 mg/kg
[6]; 1 h, 32 mA
  ED50: 0.339 mg/kg
[6]; 22 mA
  ED50: 0.28 mg/kg
[6]; 32 mA
  ED50: 0.34 mg/kg
[6]; 44 mA
  ED50: 0.78 mg/kg
[7]
  Toxicity: no toxicity in any of the animals
[8]; 0.5 mg/kg i.p.
  Time spent licking: impressive reduction in the time spent licking
[8]; 0.5 mg/kg i.p., 0 min
  Duration of Licking: 10.00 sec and 0.00 sec and 3.00 sec and 1.00 sec (4×) and 2.00 sec
[8]; 0.5 mg/kg i.p., 5 min
  Duration of Licking: 0.00 s
[8]; 0.5 mg/kg i.p., 10 min
  Duration of Licking: 0.00 s
[8]; 0.5 mg/kg i.p., 15 min
  Duration of Licking: 0.00 s
[8]; 0.5 mg/kg i.p., 20 min
  Duration of Licking: 0.00 s
[8]; 0.5 mg/kg i.p., 25 min
  Duration of Licking: 0.00 s
[8]; 0.5 mg/kg i.p., 30 min
  Duration of Licking: 0.00 s
[8]; 0.5 mg/kg i.p., 35 min
  Duration of Licking: 0.00 s
[8]; 0.5 mg/kg i.p., 40 min
  Duration of Licking: 0.00 s
[8]; 0.5 mg/kg i.p., Acute phase
  Area Under the Curve, Drug Tested: 7.3
  activity at 0.5 mg/kg: 2.8%
[8]; [11]
  Area Under the Curve, Drug Tested: 0.0
  activity at 0.5 mg/kg: 0%
[8]; 1 mg/kg i.p., mice
  Inhibition of phase 1 (acute) and phase 2 (inflammatory) pain response: complete inhibition
[8]; 1 mg/kg i.p., Acute phase
  Area Under the Curve, Drug Treated: 0.0
  activity at 1 mg/kg: 0%
[8]; [12]
  Area Under the Curve, Drug Treated: 0.0
  activity at 1 mg/kg: 0%
[9]; 1 mg/kg SOL, 0.5 h
  N/F (mice showing an effect / mice tested), SCMET: 3/5
[9]; 1 mg/kg SOL, 4.0 h
  N/F (mice showing an effect / mice tested), SCMET: 0/1
[9]; 3 mg/kg SUS, 0.5 h
  N/F (mice showing an effect / mice tested), SCMET: 1/1
[9]; 3 mg/kg SUS, 4.0 h
  N/F (mice showing an effect / mice tested), SCMET: 0/1
[9]; 10 mg/kg SUS, 0.5 h
  N/F (mice showing an effect / mice tested), SCMET: 0/1
[9]; 10 mg/kg SUS, 4.0 h
  N/F (mice showing an effect / mice tested), SCMET: 1/1
[9]; scPTZ, Mouse, 1 mg/kg, time of test 2 h
  Maximum Protection Observed: 25%
[10]
  Behavioral impairment: marked motor impairment
